Measured values published in patent US20030059421A1, “DNA encoding the baboon and cynomolgus macaque prostoglandin E2 receptor EP4 subtype” (Pfizer Inc., priority 2001, published 2003).
pEC50, pIC50: −log10 of the molar value.

What was measured:
[1] = test system: parental CHO—K1 cells; test: cAMP levels in parental CHO-K1 cells; format: cell-based, Chinese hamster; details: parental (untransfected) CHO-K1 cells
[2] = molecular target: T1, cynomolgus macaque prostaglandin receptor EP4 (cynEP4) (Macaca fascicularis, UniProt Q95J39); test: cAMP accumulation (SPA) in CHO cells transiently transfected with cynomolgus macaque EP4; format: cell-based; details: 12 minutes treatment, IBMX present
Method: (§1) FIG. 7 provides characterization of secondary signaling in CHO cells expressing cynomolgus macaque prostaglandin receptor EP4. An SPA assay was performed on CHO cells transiently transfected with cynEP4 following treatment for 12 minutes with either (▪) PGE2 or the EP4 specific ligand (●) EP4SL. Error bars represent one standard deviation.
(§2) Secondary signaling in CHO cells expressing baEP4 or cynEP4 was measured by cAMP accumulation. CHO cells transiently transfected with baEP4 or cynEP4 were treated for 12 minutes with various concentrations of PGE2 in the presence of 2 mM IBMX. Accumulation of intracellular cAMP was measured at the end of the treatment period by use of a commercially available scintillation proximity assay (SPA) kit (Amersham, Arlington Heights, Ill.).
(§3) The day prior to transfection, CHO—K1 cells were plated in 100 mm dishes (Corning, Corning, N.Y.) at 6×10^4 cells/cm^2 in DMEM/F12 (Life Technologies) supplemented with 10% fetal calf serum (FCS; Gemini Bio-Products, Calabasas, Calif.). […]
(§4) To measure stimulation of cAMP production, CHO cells transiently transfected with the baboon EP4 or cynomolgus macaque EP4 receptor were plated at 20,000 cells/well in poly-D lysine coated 96-well tissue-culture plates (Becton-Dickinson, Franklin Lakes, N.J.) and allowed to grow for 72 hours. […] Assay plates were then counted in a Wallac Trilux counter (Perkin Elmer, Boston, Mass.).

[3] = molecular target: T2, baboon prostaglandin receptor EP4 (baEP4) (Papio cynocephalus, UniProt Q7JGJ7); test: Competition binding with 3H-PGE2 on CHO-K1 cells transiently transfected with baboon EP4; details: for pIC50: baEP4 transfected CHO-K1 whole cells, 3 nM 3H-PGE2, 1 hr on ice, read-out: IC50, displacement of 3H-PGE2 binding
Method: Following washing and solubilization of the cells, specific binding was determined by scintillation counting.
(§5) To test the binding and signaling characteristics of this putative ba/cynEP4 receptor, DNA fragments containing the entire open reading frames of each baboon and cynomolgus macaque were separately transiently transfected into CHO—K1 cells.
The day prior to transfection, CHO—K1 cells were plated in 100 mm dishes (Corning, Corning, N.Y.) at 6×10^4 cells/cm^2 in DMEM/F12 (Life Technologies) supplemented with 10% fetal calf serum (FCS; Gemini Bio-Products, Calabasas, Calif.). The next day, each plate of cells was transfected with 15 g of either baboon or cynomolgus macaque EP4-pCR3.1-Uni plasmid DNA using Lipofectamine 2000 reagent (Life Technologies) according to the manufacturer's protocol. Briefly, 45 l of Lipofectamine 2000 reagent was diluted into 1.5 ml of D-MEM/F12 without serum and incubated at room temperature for 5 minutes. During this time, 15 g of either baboon or cynomolgus macaque EP4-pCR3.1-Uni plasmid DNA was diluted into 0.5 ml of D-MEM/F12 without serum. The diluted Lipofectamine 2000 reagent and the DNA were then mixed and incubated an additional 20 minutes at room temperature. 8 ml D-MEM/F12 without serum was then added to each reaction and carefully added to a plate of CHO cell previously rinsed with serum free D-MEM/F12. These cells were then incubated at 37° C. with 5% CO2 for 6 hr at which time 1 ml FCS was added per plate and the incubation continued at 37° C. with 5% CO2 overnight. The following day, the cells were split to either 24-well or 96-well dishes for use in ligand binding and/or secondary signaling analyses.
CHO cells transiently transfected with the baboon EP4 or cynomolgus macaque EP4 receptor were plated at 60,000 cells/well in 24-well tissue-culture dishes (Corning, Corning, N.Y.) and allowed to grow for 48 hours. […] Unbound radioligand was removed by extensive washing, the cells were solubilized with 1% SDS, and the bound ^3H-PGE2 quantitated by scintillation counting.

[4] = molecular target: T1, cynomolgus macaque prostaglandin receptor EP4 (cynEP4); test: Competition binding with 3H-PGE2 on CHO-K1 cells transiently transfected with cynomolgus macaque EP4; details: for pIC50: cynEP4 transfected CHO-K1 whole cells, 3 nM 3H-PGE2, 1 hr on ice, read-out: IC50, displacement of 3H-PGE2 binding
Method: Each indicated concentration of (▪) PGE2, (♦) EP4SL, (▴) butaprost, or (●) sulprostone was incubated with three wells of a 24-well dish of CHO cells transiently transfected with cynEP4 for 1 hr on ice in the presence of 3 nM ^3H-PGE2. Following washing and solubilization of the cells, specific binding was determined by scintillation counting.
as §5
CHO cells transiently transfected with the baboon EP4 or cynomolgus macaque EP4 receptor were plated at 60,000 cells/well in 24-well tissue-culture dishes (Corning, Corning, N.Y.) and allowed to grow for 48 hours. Whole cell binding reactions (0.2 ml per well) containing 3 nM ^3H-PGE2 plus unlabeled competitor (10^−5 to 10^−10 M) were performed on ice for 1 hr. Unbound radioligand was removed by extensive washing, the cells were solubilized with 1% SDS, and the bound ^3H-PGE2 quantitated by scintillation counting.

[5] = molecular target: T2, baboon prostaglandin receptor EP4 (baEP4); test: cAMP accumulation (SPA) in CHO cells transiently transfected with baboon EP4; format: cell-based; details: 12 minutes treatment, IBMX present
Method: as §1, with “6” for “7”, “baboon” for “cynomolgus macaque”, “baboon EP4” for “cynEP4”
as §2, §3, §4

T2 sequence (Q7JGJ7 entry or part of it): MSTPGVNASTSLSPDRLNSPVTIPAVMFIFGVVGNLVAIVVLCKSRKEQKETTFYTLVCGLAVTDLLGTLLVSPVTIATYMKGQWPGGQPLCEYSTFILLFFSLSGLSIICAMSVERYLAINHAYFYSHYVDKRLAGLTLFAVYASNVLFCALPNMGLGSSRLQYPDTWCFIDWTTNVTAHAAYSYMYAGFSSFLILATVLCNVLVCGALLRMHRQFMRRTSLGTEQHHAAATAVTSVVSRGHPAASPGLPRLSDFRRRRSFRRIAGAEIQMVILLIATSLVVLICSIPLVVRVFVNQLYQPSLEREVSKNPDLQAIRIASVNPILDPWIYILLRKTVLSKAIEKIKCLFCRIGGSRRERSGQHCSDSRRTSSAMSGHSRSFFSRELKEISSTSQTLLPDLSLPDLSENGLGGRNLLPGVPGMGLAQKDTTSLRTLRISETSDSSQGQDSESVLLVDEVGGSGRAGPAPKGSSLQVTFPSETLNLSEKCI
T1 sequence (Q95J39 entry or part of it): as the sequence (Q7JGJ7 entry or part of it) above

Row | binding to the receptor (competition with 3H-PGE2), result in words ([3]; baEP4 transfected CHO-K1 cells, competitor 10^-5 to 10^-10 M) | binding to the receptor (competition with 3H-PGE2), result in words ([4]; cynEP4 transfected CHO-K1 cells, competitor 10^-5 to 10^-10 M) | Structure (SMILES) | increased levels of cAMP, result in words [1] | pEC50 [2] | pIC50 [3] | pIC50 [4] | pEC50 [5]
1 |  |  | O=C(O)CCCCCCN1C(=O)CCC1CCC(O)Cc1ccccc1 (stereo not drawn) [EP4SL, 7-[2-(3-hydroxy-4-phenyl-butyl)-5-oxo-pyrrolidin-1-yl]-heptanoic acid] | not in parental CHO—K1 cells | 6.25 | 6.44 | 6.52 | 6.06
2 |  |  | CCCCC[C@H](O)/C=C/[C@H]1[C@H](O)CC(=O)[C@@H]1C/C=C\CCCC(=O)O [PGE2, Prostaglandin E2] | not in parental CHO—K1 cells | 8.05 | 8.59 | 8.60 | 7.65
3 | did not bind | did not bind | CCCC1([C@H](O)C/C=C/[C@H]2[C@H](O)CC(=O)[C@@H]2CCCCCCC(=O)OC)CCC1 [butaprost] |  |  |  |  | 
